Reference: US20120202794A1 (priority 2011, published 2012)

Legend:
HCV Replicon 1b = experiment: HCV inhibition assay, HCV replicon 1b (Clone A or ET-lunet cells; RT-PCR or luciferase reporter); format: cell-based; conditions: Hepatitis C virus, 96 h, HCV replicon 1b; 4 days incubation; read-out: Replicon 1b potency EC90
Summary of the method: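 Inhibition read either as luciferase signal (ET replicon) or as HCV 5′-NTR RNA by RT-PCR relative to rRNA, % = (1−2^−ΔΔCt)×100, against DMSO controls, giving EC50 and EC90. Cells: Clone A or ET-lunet, seeded 1500 or 3000/well, exposed 4 days at 37 °C, 5% CO2, 0.5% DMSO.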

[1] = Cell cytotoxicity assay (MTS), CC90 as reported in Table 1, cell line not stated; format: cell-based; conditions: human; MTS assay; 8 days incubation; cell line not given
Summary of the method: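 MTS read-out (490 nm, 2 h dye step) after 8-day exposure at 37° C. Huh7, HepG2, BxPC3 were seeded at 2×10^3 and CEM at 5×10^3 cells/well, with compound serially diluted from 100 μM. CC90 comes from comparison with untreated control wells.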

Row | Compound | EC90 (HCV Replicon 1b) | CC90 at 8 days [1]
1 | COC(=O)c1ccc(/C=C/C(=O)N2C[C@H](CC(C)C)NC(=O)[C@@H]2CC(C)C)cc1 [Compound 270, Methyl 4-((E)-3-((2S,5S)-2,5-diisobutyl-3-oxopiperazin-1-yl)-3-oxoprop-1-en-1-yl)-benzoate] | > 10 µM | > 10 µM
2 | CC(C)C[C@H]1CN(C(=O)/C=C/c2c(F)cccc2F)[C@@H](CC(C)C)C(=O)N1 [Compound 271, (3S,6S)-4-[3-(2,6-Difluoro-phenyl)-acryloyl]-3,6-diisobutyl-piperazin-2-one] | > 10 µM | > 10 µM
3 | CC(C)C[C@H]1CN(C(=O)c2cc(-c3ccc(Cl)cc3)cs2)[C@@H](CC(C)C)C(=O)N1 [Compound 272, (3S,6S)-4-(4-(4-chlorophenyl)thiophene-2-carbonyl)-3,6-diisobutylpiperazin-2-one] | 3.56 µM | > 10 µM
4 | CC(C)C[C@H]1CN(C(=O)c2cc(-c3ccccc3Cl)on2)[C@@H](CC(C)C)C(=O)N1 [Compound 274, (3S,6S)-4-(5-(2-chlorophenyl)isoxazole-3-carbonyl)-3,6-diisobutylpiperazin-2-one] | 5.95 µM | > 10 µM
5 | CC(C)C[C@H]1CN(C(=O)c2cc(-c3ccc(Cl)cc3Cl)on2)[C@@H](CC(C)C)C(=O)N1 [Compound 275, (3S,6S)-4-(5-(2,4-dichlorophenyl)isoxazole-3-carbonyl)-3,6-diisobutylpiperazin-2-one] | 6.31 µM | > 10 µM
6 | CC(C)C[C@H]1CN(C(=O)c2cc(-c3ccc(Cl)c(Cl)c3)on2)[C@@H](CC(C)C)C(=O)N1 [Compound 276, (3S,6S)-4-(5-(3,4-Dichlorophenyl)isoxazole-3-carbonyl)-3,6-diisobutylpiperazin-2-one] | 2.98 µM | > 10 µM
7 | CSc1ccc(-c2cc(C(=O)N3C[C@H](CC(C)C)NC(=O)[C@@H]3CC(C)C)no2)cc1 [Compound 277, (3S,6S)-3,6-diisobutyl-4-(5-(4-(methylthio)phenyl)isoxazole-3-carbonyl)piperazin-2-one] | 5.84 µM | > 10 µM
8 | CC(C)C[C@H]1CN(C(=O)Cc2cc(-c3ccc(F)cc3)on2)[C@@H](CC(C)C)C(=O)N1 [Compound 278, (3S,6S)-4-(2-(5-(4-fluorophenyl)isoxazol-3-yl)acetyl)-3,6-diisobutylpiperazin-2-one] | 7.89 µM | > 10 µM
9 | CC(C)C[C@H]1C(=O)N[C@@H](CC(C)(C)C)CN1C(=O)[C@@H]1C[C@H]1c1ccccc1 [Compound 280, (3S,6S)-3-isobutyl-6-neopentyl-4-((1R,2R)-2phenylcyclopropanecarbonyl)piperazin-2-one] | 8.65 µM | > 10 µM
10 | CC(C)(C)C[C@H]1CN(C(=O)[C@@H]2C[C@H]2c2ccccc2)[C@@H](CC(C)(C)C)C(=O)N1 [Compound 281, (3S,6S)-3,6-dineopentyl-4-((1R,2R)-2-phenylcyclopropanecarbonyl)-piperazin-2-one] | > 10 µM | > 10 µM
11 | CCc1ccc(-c2cc(C(=O)N3C[C@H](CC(C)C)NC(=O)[C@@H]3CC(C)C)no2)cc1 [Compound 283, (3S,6S)-4-(5-(4-ethylphenyl)isoxazole-3-carbonyl)-3,6-diisobutylpiperazin-2-one] | 8.75 µM | > 10 µM
12 | CC(C)C[C@H]1CN(C(=O)c2cc(-c3ccc(C4CC4)cc3)on2)[C@@H](CC(C)C)C(=O)N1 [Compound 284, (3S,6S)-4-(5-(4-cyclopropylphenyl)isoxazole-3-carbonyl)-3,6-diisobutylpiperazin-2-one] | > 10 µM | > 10 µM
13 | COc1ccc2c(c1)CCc1cc(C(=O)N3C[C@H](CC(C)C)NC(=O)[C@@H]3CC(C)C)sc1-2 [Compound 286, (3S,6S)-3,6-diisobutyl-4-(7-methoxy-4,5-dihydronaphtho[1,2-b]thiophene-2-carbonyl)piperazin-2-one] | 3.91 µM | > 10 µM
14 | CC(C)C[C@H]1CN(C(=O)c2cc(-c3cc(F)cc(F)c3)on2)[C@@H](CC(C)C)C(=O)N1 [Compound 287, (3S,6S)-4-(5-(3,5-difluorophenyl)isoxazole-3-carbonyl)-3,6-diisobutylpiperazin-2-one] | 3.57 µM | > 10 µM
15 | CC(C)C[C@H]1C(=O)N[C@@H](CC2CC2)CN1C(=O)c1cc(-c2ccc(F)cc2F)on1 [Compound 288, (3S,6S)-6-(cyclopropylmethyl)-4-(5-(2,4-difluorophenyl)isoxazole-3-carbonyl)-3-isobutylpiperazin-2-one] | 1.6 µM | > 10 µM
16 | COc1ccc2c(c1)CCc1c(C(=O)N3C[C@H](CC(C)C)NC(=O)[C@@H]3CC(C)C)noc1-2 [Compound 289, (3S,6S)-3,6-diisobutyl-4-(7-methoxy-4,5-dihydronaphtho[2,1-d]isoxazole-3-carbonyl)piperazin-2-one] | 5.01 µM | > 10 µM

Row | Compound | EC90 (HCV Replicon 1b) | CC90 at 8 days [1]
17 | CCC[C@H]1CN(C(=O)c2noc(-c3ccc(F)cc3)n2)[C@@H](CC(C)C)C(=O)N1 [Compound 290, (3S,6S)-4-(5-(4-fluorophenyl)-1,2,4-oxadiazole-3-carbonyl)-3-isobutyl-6-propylpiperazin-2-one] | 0.14 µM | > 10 µM
18 | CC(C)C[C@H]1C(=O)N[C@@H](C2CCCCC2)CN1C(=O)c1noc(-c2ccc(F)cc2)n1 [Compound 291, (3S,6S)-6-cyclohexyl-4-(5-(4-fluorophenyl)-1,2,4-oxadiazole-3-carbonyl)-3-isobutylpiperazin-2-one] | 0.33 µM | > 10 µM
19 | CC(C)C[C@H]1CN(C(=O)c2noc(-c3ccc(F)cc3)n2)[C@@H](CC(C)C)C(=O)N1 [Compound 293, (3S,6S)-4-(5-(4-Fluorophenyl)-1,2,4-oxadiazole-3-carbonyl)-3,6-diisobutylpiperazin-2-one] | 0.27 µM | > 10 µM
20 | CC(C)C[C@H]1C(=O)N[C@@H](C2CCCC2)CN1C(=O)c1noc(-c2ccc(F)cc2)n1 [Compound 294, (3S,6S)-6-Cyclopentyl-4-(5-(4-fluorophenyl)-1,2,4-oxadiazole-3-carbonyl)-3-isobutylpiperazin-2-one] | 0.35 µM | > 10 µM
21 | CC(C)C[C@H]1C(=O)N[C@@H](C(C)C)CN1C(=O)c1noc(-c2ccc(F)cc2)n1 [Compound 295, (3S,6S)-4-(5-(4-Fluorophenyl)-1,2,4-oxadiazole-3-carbonyl)-3-isobutyl-6-isopropylpiperazin-2-one] | 0.32 µM | > 10 µM
22 | CSC[C@H]1CN(C(=O)c2noc(-c3ccc(F)cc3)n2)[C@@H](CC(C)C)C(=O)N1 [Compound 296, (3S,6R)-4-(5-(4-Fluorophenyl)-1,2,4-oxadiazole-3-carbonyl)-3-isobutyl-6-((methylthio)methyl)piperazin-2-one] | 1.54 µM | > 10 µM
23 | CC(C)C[C@H]1C(=O)N[C@@H](CC2CC2)CN1C(=O)[C@@H]1C[C@H]1c1ccc(F)cc1 [Compound 297, (3S,6S)-4-[(1R,2R)-2-(4-Fluoro-phenyl)-cyclopropanecarbonyl]-6-cyclopropyl-methyl-3-isobutyl-piperazin-2-one] | 0.41 µM | > 10 µM
24 | CSC[C@H]1CN(C(=O)[C@@H]2C[C@H]2c2ccc(F)cc2)[C@@H](CC(C)C)C(=O)N1 [Compound 299, (3S,6R)-4-((1R,2R)-2-(4-fluorophenyl)cyclopropanecarbonyl)-3-isobutyl-6-((methylthio)methyl)piperazin-2-one] | 0.63 µM | > 10 µM
25 | CSC[C@H]1CN(C(=O)[C@@H]2C[C@H]2c2ccc(Cl)cc2)[C@@H](CC(C)C)C(=O)N1 [Compound 300, (3S,6R)-4-((1R,2R)-2-(4-Chlorophenyl)cyclopropanecarbonyl)-3-isobutyl-6-((methylthio)methyl)piperazin-2-one] | 0.78 µM | > 10 µM
26 | CC(C)C[C@H]1CN(C(=O)c2noc3c2CCc2cc(F)ccc2-3)[C@@H](CC(C)C)C(=O)N1 [Compound 302, (3S,6S)-3,6-Diisobutyl-4-(7-fluoro-4,5-dihydronaphtho[2,1-d]isoxazole-3-carbonyl)piperazin-2-one] | 1.41 µM | > 10 µM
27 | CCC[C@H]1CN(C(=O)c2noc3c2CCc2cc(F)ccc2-3)[C@@H](CC(C)C)C(=O)N1 [Compound 304, (3S,6S)-4-(7-fluoro-4,5-dihydronaphtho[2,1-d]isoxazole-3-carbonyl)-3-isobutyl-6-propylpiperazin-2-one] | 0.64 µM | > 10 µM
28 | CC(C)C[C@H]1C(=O)N[C@@H](C2CCCC2)CN1C(=O)c1noc2c1CCc1cc(F)ccc1-2 [Compound 305, (3S,6S)-6-cyclopentyl-4-(7-fluoro-4,5-dihydronaphtho[2,1-d]isoxazole-3-carbonyl)-3-isobutylpiperazin-2-one] | 1.61 µM | > 10 µM
29 | CC(C)C[C@H]1C(=O)N[C@@H](c2ccccc2)CN1C(=O)c1noc2c1CCc1cc(F)ccc1-2 [Compound 306, (3S,6S)-4-(7-fluoro-4,5-dihydronaphtho[2,1-d]isoxazole-3-carbonyl)-3-isobutyl-6-phenylpiperazin-2-one] | 0.89 µM | > 10 µM
30 | CC(C)C[C@H]1CN(C(=O)c2cc3c(s2)-c2ccccc2OC3)[C@@H](CC(C)C)C(=O)N1 [Compound 307, (3S,6S)-3,6-diisobutyl-4-(4H-thieno[3,2-c]chromene-2-carbonyl)piperazin-2-one] | 4.71 µM | > 10 µM
31 | CC(C)C[C@H]1CN(C(=O)c2cc3c(s2)-c2cc(F)ccc2OC3)[C@@H](CC(C)C)C(=O)N1 [Compound 308, (3S,6S)-4-(8-fluoro-4H-thieno[3,2-c]chromene-2-carbonyl)-3,6-diisobutylpiperazin-2-one] | 6.48 µM | > 10 µM
